Results on 9 molecules are retold here after patent US20250163024A1, “CHEMICAL TARGETING SWI/SNF RELATED, MATRIX ASSOCIATED, ACTIN DEPENDENT REGULATOR OF CHROMATIN, SUBFAMILY A, MEMBER 4 (SMARCA4) AND USE IN DIFFUSE INTRINSIC PONTINE GLIOMA (DIPG)” (DANA-FARBER CANCER INSTITUTE, INC., priority 2022, published 2025).

Where two headings read alike, the source gives them in different places.

Holding throughout (format): cell-based
Test [1] deals with MV411 (human myelomonocytic leukemia) cells. In words: Cell proliferation assay (ATPlite cell viability) in MV411 cells. Conditions: for IC50: Homo sapiens, MV4-11, 48 hours. Here is the method:
(§1) 2000 cells were seeded in 50 μL of RPMI medium in each well of a white, solid bottomed 384-well plate. Plates were spun down briefly, and seeded cells were pinned with […] of the bifunctional compound at serial three-fold diluted concentrations using the JANUS® Liquid Handling Workstation. Plates were incubated at 37° C. in 5% CO2 for the indicated treatment time (48 hours). After compound treatment, 15 μL of 1:2 solution of ATPlite™ 1Step diluted in PBS was added to each well of the 384-well plates. Plates were put on a plate shaker for 1 minute and incubated at room temperature for 9 minutes, and the resulting luminescence signal was read using an EnVision® plate reader. Cell viability was calculated by normalizing luminescence signals of SMARC compound treated cells to that of vehicle treated cells.
On the technique in general: Cellular ATP, detected with luciferase, serves as a proxy for viable cell number.

Test [2] concerns MOLM13 (acute monocytic leukemia) cells. In words: Cell proliferation assay (ATPlite cell viability) in MOLM13 cells. Conditions: for IC50: Homo sapiens. Here is the method:
as §1, with “Plates were incubated at 37° C. in 5% CO2 for the indicated treatment time (48 hours).” left out

A further test addresses T1, SMARCA4 (BRG) (Homo sapiens, UniProt P51532).
T1 construct: endogenous in cells; host or cells: NOMO-1 cells
In words: Cellular degradation of SMARCA4 in NOMO-1 cells (western blot). The following applies: NOMO1 cells, low micromolar treatment, 24 hours, western blot FIG. 1A-1B. Here is the method:
For each tested condition, 1 million cells were seeded into a well of a 6-well plate. After overnight incubation at 37° C. in 5% CO2, cells were treated with either DMSO or varying doses of the indicated bifunctional compound and put back into the incubator for the indicated treatment time. Treated cells were collected by transferring cell suspensions from 6-well plate wells into microcentrifuge tubes and spinning down samples at 3000 rpm for 3 minutes. Supernatant was discarded and all samples were washed with phosphate-buffered saline (PBS) to remove any remaining compound from the cells. Cells were lysed using radioimmunoprecipitation assay (RIPA) buffer and sonicated on ice for 3 seconds at 25% amplification and allowed to rest for 15-30 minutes. Lysates were then spun down at 15000 rpm for 10 minutes and supernatant was collected. Protein concentration was measured using the Pierce™ bicinchoninic acid (BCA) Protein Assay Kit from ThermoFisher Scientific according to the manufacturer's instructions. Equivalent amounts of protein were resolved by western blotting using 4-12% Bis-Tris NuPAGE™ gels (Thermo-Fisher Scientific) prior to transfer and overnight immunoblotting using primary antibodies to the proteins indicated. […]

Where [3] appears, read: MOLM-13, 72 h (starred values), read-out: IC50 (μM) MOLM13, *72 h.
Where [4] appears, read: MOLM-13, 48 hours, read-out: IC50 (μM) MOLM13-48h.

T1 sequence (P51532 whole entry): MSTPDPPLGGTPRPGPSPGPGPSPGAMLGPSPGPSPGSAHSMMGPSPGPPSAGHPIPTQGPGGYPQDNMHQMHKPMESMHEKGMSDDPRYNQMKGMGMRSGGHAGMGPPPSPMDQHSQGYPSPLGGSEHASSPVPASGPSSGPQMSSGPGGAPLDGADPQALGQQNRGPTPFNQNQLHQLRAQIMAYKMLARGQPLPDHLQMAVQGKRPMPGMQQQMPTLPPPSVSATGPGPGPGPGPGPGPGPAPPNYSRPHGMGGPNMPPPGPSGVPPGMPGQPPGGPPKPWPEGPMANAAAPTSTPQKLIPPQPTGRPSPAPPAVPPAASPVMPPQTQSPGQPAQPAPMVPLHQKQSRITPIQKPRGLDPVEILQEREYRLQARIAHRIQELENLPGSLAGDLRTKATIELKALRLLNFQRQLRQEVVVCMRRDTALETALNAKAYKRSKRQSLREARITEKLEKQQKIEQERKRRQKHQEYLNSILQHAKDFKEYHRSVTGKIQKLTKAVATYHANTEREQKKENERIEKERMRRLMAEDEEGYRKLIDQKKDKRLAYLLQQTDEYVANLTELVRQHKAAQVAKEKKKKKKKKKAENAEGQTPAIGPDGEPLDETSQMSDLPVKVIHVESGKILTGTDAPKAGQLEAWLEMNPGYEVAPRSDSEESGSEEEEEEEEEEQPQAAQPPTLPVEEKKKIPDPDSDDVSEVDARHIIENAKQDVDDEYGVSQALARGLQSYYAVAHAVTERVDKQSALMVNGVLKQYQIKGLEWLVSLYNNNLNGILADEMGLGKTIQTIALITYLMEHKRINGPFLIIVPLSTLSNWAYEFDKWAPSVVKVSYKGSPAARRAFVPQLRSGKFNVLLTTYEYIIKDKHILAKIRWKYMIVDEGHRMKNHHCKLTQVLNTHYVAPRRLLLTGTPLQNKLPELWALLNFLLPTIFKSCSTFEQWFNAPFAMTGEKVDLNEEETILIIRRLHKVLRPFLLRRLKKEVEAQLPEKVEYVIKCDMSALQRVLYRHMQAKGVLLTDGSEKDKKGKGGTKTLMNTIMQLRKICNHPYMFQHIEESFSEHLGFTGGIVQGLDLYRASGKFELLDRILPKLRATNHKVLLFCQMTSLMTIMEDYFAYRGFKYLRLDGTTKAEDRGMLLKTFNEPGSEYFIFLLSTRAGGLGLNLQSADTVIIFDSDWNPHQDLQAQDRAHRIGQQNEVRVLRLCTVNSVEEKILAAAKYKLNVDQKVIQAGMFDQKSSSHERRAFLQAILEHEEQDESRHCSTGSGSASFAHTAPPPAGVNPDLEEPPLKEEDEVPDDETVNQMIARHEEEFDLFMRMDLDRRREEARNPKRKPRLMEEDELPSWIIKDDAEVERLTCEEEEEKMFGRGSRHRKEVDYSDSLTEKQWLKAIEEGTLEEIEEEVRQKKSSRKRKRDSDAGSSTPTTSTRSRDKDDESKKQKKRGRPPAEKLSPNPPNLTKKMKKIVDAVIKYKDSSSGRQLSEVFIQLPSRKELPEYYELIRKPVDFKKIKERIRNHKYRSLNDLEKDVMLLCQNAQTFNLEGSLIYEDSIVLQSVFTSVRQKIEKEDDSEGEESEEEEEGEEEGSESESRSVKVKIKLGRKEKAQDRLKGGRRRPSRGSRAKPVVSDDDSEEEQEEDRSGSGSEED

With `O=C1CCC(N2C(=O)c3cccc(NCCCCCCCCNC(=O)c4cccc(C#Cc5cc(NC(=O)Nc6ccnc(Cl)c6)ccn5)c4)c3C2=O)C(=O)N1` (stereo not drawn) [Compound 17], the IC50 in test [1] amounted to 0.491 µM; in test [2] (setting [3]), 0.566 µM.
In the case of `O=C1CCC(N2C(=O)c3cccc(NCCCCNC(=O)c4cccc(CCc5cc(NC(=O)Nc6ccnc(Cl)c6)ccn5)c4)c3C2=O)C(=O)N1` (stereo not drawn) [Compound 5, 3-(2-(4-(3-(2-chloropyridin-4-yl)ureido)pyridin-2-yl)ethyl)-N-(4-((2-(2,6-dioxopiperidin-3-yl)-1,3-dioxoisoindolin-4-yl)amino)butyl)benzamide], the “BRG (SMARCA4) degradation” value at SMARCA4 (BRG) was “significantly degraded”.
Consider `O=C1CCC(N2C(=O)c3cccc(NCCCCNC(=O)c4ccc(C#Cc5cc(NC(=O)Nc6ccnc(Cl)c6)ccn5)cc4)c3C2=O)C(=O)N1` (stereo not drawn) [Compound 6, 4-((4-(3-(2-chloropyridin-4-yl)ureido)pyridin-2-yl)ethynyl)-N-(4-((2-(2,6-dioxopiperidin-3-yl)-1,3-dioxoisoindolin-4-yl)amino)butyl)benzamide], for which the “BRG (SMARCA4) degradation” value at SMARCA4 (BRG) is recorded as “significantly degraded”.
Take `O=C1CCC(N2C(=O)c3ccc(NCCOCCNC(=O)c4cccc(C#Cc5cc(NC(=O)Nc6ccnc(Cl)c6)ccn5)c4)cc3C2=O)C(=O)N1` (stereo not drawn) [Compound 22]: the IC50 in test [1] turned out to be 0.037 µM; in test [2] (setting [4]), 0.253 µM.
For `O=C1CCC(N2C(=O)c3cccc(NCCNC(=O)c4cccc(C#Cc5cc(NC(=O)Nc6ccnc(Cl)c6)ccn5)c4)c3C2=O)C(=O)N1` (stereo not drawn) [Compound 23], the IC50 in test [1] came to 21.7 µM; in test [2] (setting [4]), 6.18 µM.
Consider `O=C1CCC(N2C(=O)c3cccc(NCCCCCCNC(=O)c4cccc(C#Cc5cc(NC(=O)Nc6ccnc(Cl)c6)ccn5)c4)c3C2=O)C(=O)N1` (stereo not drawn) [Compound 24], for which the results for the IC50 in test [1] and in test [2] (setting [4]) were 0.0389 µM and 0.344 µM, respectively.
`O=C1CCC(N2C(=O)c3cccc(NCCOCCOCCNC(=O)c4cccc(C#Cc5cc(NC(=O)Nc6ccnc(Cl)c6)ccn5)c4)c3C2=O)C(=O)N1` (stereo not drawn) [Compound 18]: the 50% inhibitory concentration (IC50) was 0.109 µM in test [1] and 1.28 µM in test [2] (setting [3]).
`O=C1CCC(N2C(=O)c3ccc(NCCCCNC(=O)c4cccc(C#Cc5cc(NC(=O)Nc6ccnc(Cl)c6)ccn5)c4)cc3C2=O)C(=O)N1` (stereo not drawn) [Compound 21]: the IC50 in test [1] was 0.0102 µM; in test [2] (setting [4]) it was 0.0793 µM.
Take `O=C1CCC(N2C(=O)c3cccc(NCCCCNC(=O)c4cccc(C#Cc5cc(NC(=O)Nc6ccnc(Cl)c6)ccn5)c4)c3C2=O)C(=O)N1` (racemic) [Compound 19, 3-((4-(3-(2-chloropyridin-4-yl)ureido)pyridin-2-yl)ethynyl)-N-(4-((2-(2,6-dioxopiperidin-3-yl)-1,3-dioxoisoindolin-4-yl)amino)butyl)benzamide]: in test [1], the “IC50 (μM) MV411-48h” value is “submicromolar”. The results for the IC50 in test [1] and in test [2] (setting [4]) were 0.109 µM and 0.0571 µM, respectively. The “IC50 (μM) MOLM13-48h” value in test [2] (48 hours) is given as “submicromolar”.

One may read the IC50 as the concentration at which inhibition is half-maximal.
